From US12151019B2, “Compositions for blood storage and transfusions” (Albert Einstein College of Medicine, priority 2020, dated 2024)

Test: Loading potential / solubility in PEG400/myristic acid vehicles and in water
Format: physicochemical
Details: for dissolved material in aqueous solution: aqueous sample compared with Sample 3
Experimental: Vehicles for loading the active ingredient were prepared as illustrated in samples 1-4. Myristic acid (solid flakes) was dissolved in PEG400 upon warming the mixture in a warm water bath. Shaking accelerated the formation of the resulting clear solution. The following four concentrations of myristic acid (MA) in PEG400 were prepared and evaluated. Samples 1, 2, 3 and 4 were all clear solutions when the samples were allowed to attain ambient temperatures. • a. 30 ml of PEG400+1.5 grams of MA (Sample 1) • b. 30 ml of PEG400+3 grams of MA (Sample 2) • c. 30 ml of PEG400+0.75 grams of MA (Sample 3) • d. 30 ml of PEG400+2.25 grams of MA (Sample 4)
The samples as vehicles were loaded with NO enhancing agent. […] Samples 1 and 2 were initially liquid but formed a solid uniform gel over a period of several hours. Sample 3 was prepared by dissolving 0.75 grams of MA in 30 ml's of PEG400 and heating in a water bath (˜60-80 C) for ˜15 minutes. Sample 4 was prepared by dissolving 2.25 grams of MA in 30 mls of PEG400 and heating in a water bath (˜60-80 C) for ˜15 minutes. Both sample 3 and sample 4 were uniform solutions when the heating cycle was finished. Upon cooling sample 3 remained liquid whereas sample 4 formed a uniform gel.
The addition of water to the PEG400/MA based formulation can create a nonuniform emulsion that poses difficulties for topical use.
The Sample 3 solvent system was also tested as a vehicle for loading potential with the following low solubility reagents using the above method: quercetin, berberine, N-acetyl cysteine amide (NACA) and N-acetyl cysteine ethyl ester (NAC-ethylester).

dissolved material in aqueous solution	solubility of quercetin in sample 3 or sample 4 (either sample 3 or sample 4 vehicle)	SMILES	dissolving of added curcumin in PEG400/myristic acid (1.5 grams of Curcumin 95 added to Samples 1, 2, 3 (30 ml PEG400 + MA), warmed, shaken, cooled to ambient)
minimal dissolved material	200-300 mg quercetin in 30 ml	O=c1c(O)c(-c2ccc(O)c(O)c2)oc2cc(O)cc(O)c12 [quercetin]	
minimal dissolved material		COc1ccc2cc3[n+](cc2c1OC)CCc1cc2c(cc1-3)OCO2 [berberine]	
		COc1cc(/C=C/C(=O)CC(=O)/C=C/c2ccc(O)c(OC)c2)ccc1O [Curcumin 95]	dissolving of almost all of the added curcumin
